According to ChEMBL document CHEMBL5113491, “Discovery of N-benzylarylamide derivatives as novel tubulin polymerization inhibitors capable of activating the Hippo pathway” (Eur J Med Chem, 2022):
The source made the active and inactive calls. The rule behind the calls is not given here.

How the values were obtained:
MGC-803 [1] = assay: Downregulation of TAZ protein expression in human MGC-803 cells measured after 48 hrs by Western blot analysis; type: functional, cell-based; details: dose 15-45 nmol/L, DDE = dose-dependent effect
SGC-7901 [2] = assay: Induction of morphological changes in human SGC-7901 cells assessed as decrease in density at 15 to 45 nmol/L measured after 48 hrs by bright field microscopic analysis; type: functional, cell-based; details: dose 15-45 nmol/L
SMMC-7721 = assay: Antiproliferative activity against human SMMC-7721 cells assessed as inhibition of cell growth measured after 48 hrs by MTT assay; type: functional, cell-based; details: SMMC-7721, 48 h
SGC-7901 [3] = assay: Induction of apoptosis in human SGC-7901 cells assessed as decrease in Mcl-1 protein expression measured after 48 hrs by Western blot analysis; type: functional, cell-based; details: dose 15-45 nmol/L, DDE = dose-dependent effect
MGC-803 [4] = assay: Induction of apoptosis in human MGC-803 cells assessed as increase in cleaved PARP expression at 15 to 45 nmol/L measured after 48 hrs by Western blot analysis; type: functional, cell-based; details: dose 15-45 nmol/L
GES1 = assay: Cytotoxicity against human GES1 cells assessed as reduction in cell viability at 5 to 40 nM measured after 48 hrs by MTT assay; type: toxicity, cell-based; details: ges1, 48 h, 0.04 µM, dose 5-40 nM
MGC-803 [5] = assay: Antiproliferative activity against human MGC-803 cells assessed as inhibition of cell growth measured upto 72 hrs by MTT assay; type: functional, cell-based; details: dose 15-45 µmol/L, DDE = dose-dependent effect
SGC-7901 [6] = assay: Antiproliferative activity against human SGC-7901 cells assessed as inhibition of cell growth measured upto 72 hrs by MTT assay; type: functional, cell-based; details: dose 15-45 µmol/L, DDE = dose-dependent effect
SGC-7901 [7] = assay: Induction of G2/M phase cell cycle arrest in human SGC-7901 cells assessed as decrease in cyclin A1 expression at 15 to 45 nmol/L measured after 48 hrs by Western blot analysis; type: functional, cell-based; details: dose 15-45 nmol/L
SGC-7901 [8] = assay: Downregulation of YAP protein expression in human SGC-7901 cells measured after 48 hrs by Western blot analysis; type: functional, cell-based; details: dose 15-45 nmol/L, DDE = dose-dependent effect
Huh-7 = assay: Antiproliferative activity against human Huh-7 cells assessed as inhibition of cell growth measured after 48 hrs by MTT assay; type: functional, cell-based; details: Huh-7, 48 h
SGC-7901 [9] = assay: Induction of G2/M phase cell cycle arrest in human SGC-7901 cells assessed as decrease in cyclin B1 expression at 15 to 45 nmol/L measured after 48 hrs by Western blot analysis; type: functional, cell-based; details: dose 15-45 nmol/L
SGC-7901 [10] = assay: Antiproliferative activity against human SGC-7901 cells assessed as inhibition of cell growth at 15 to 45 […] by MTT assay; type: functional, cell-based; details: dose 15-45 µmol/L, time <= 72.0 hrs, TDE = time-dependent effect
MGC-803 [11] = assay: Antiproliferative activity against human MGC-803 cells assessed as inhibition of cell growth measured after 48 hrs by MTT assay; type: functional, cell-based; details: MGC-803, 48 h
SGC-7901 [12] = assay: Activation of MST in human SGC-7901 cells assessed as increase in MST phosphorylation measured after 48 hrs by Western blot analysis; type: cell-based; details: filed as activator, dose 15-45 nmol/L, DDE = dose-dependent effect
SGC-7901 [13] = assay: Induction of cell cycle arrest in human SGC-7901 cells assessed as increase in G2/M phase cells measured after 24 hrs by flow cytometry; type: functional, cell-based; details: dose 15-45 nmol/L, DDE = dose-dependent effect
ECa-109 cell line = assay: Antiproliferative activity against human EC109 cells assessed as inhibition of cell growth measured after 48 hrs by MTT assay; type: functional, cell-based; details: ECa-109, 48 h
MGC-803 [14] = assay: Induction of apoptosis in human MGC-803 cells assessed as decrease in Mcl-1 protein expression measured after 48 hrs by Western blot analysis; type: functional, cell-based; details: dose 15-45 nmol/L, DDE = dose-dependent effect
DU-145 = assay: Antiproliferative activity against human DU-145 cells assessed as inhibition of cell growth measured after 48 hrs by MTT assay; type: functional, cell-based; details: DU-145, 48 h
[15] = Cytotoxicity against human HUVEC cells assessed as reduction in cell viability measured after 48 hrs by MTT assay; type: toxicity, cell-based
SGC-7901 [16] = assay: Induction of apoptosis in human SGC-7901 cells assessed as increase in cleaved caspase 7 expression at 15 to 45 nmol/L measured after 48 hrs by Western blot analysis; type: functional, cell-based; details: dose 15-45 nmol/L
Tubulin (Homo sapiens) = Tubulin (Homo sapiens) (UniProt P68371+Q9H4B7+P0DPH7+P68366+Q13509+Q71U36+P04350+Q3ZCM7+P07437+P68363+Q9BQE3+Q6PEY2+Q13885+Q9BVA1+Q9BUF5); assay: Induction of microtubule disruption in human MGC-803 cells at 25 nmol/L measured after 48 hrs by DAPI staining based immunofluorescence assay; type: cell-based
SGC-7901 [17] = assay: Induction of G2/M phase cell cycle arrest in human SGC-7901 cells assessed as decrease in cyclin A2 expression at 15 to 45 nmol/L measured after 48 hrs by Western blot analysis; type: functional, cell-based; details: dose 15-45 nmol/L
SGC-7901 [18] = assay: Induction of G2/M phase cell cycle arrest in human SGC-7901 cells assessed as increase in p-Histone H3 expression at 15 to 45 nmol/L measured after 48 hrs by Western blot analysis; type: functional, cell-based; details: dose 15-45 nmol/L
MGC-803 [19] = assay: Induction of G2/M phase cell cycle arrest in human MGC-803 cells assessed as decrease in cyclin A2 expression at 15 to 45 nmol/L measured after 48 hrs by Western blot analysis; type: functional, cell-based; details: dose 15-45 nmol/L
MGC-803 [20] = assay: Induction of morphological changes in human MGC-803 cells assessed as cell fragmentation at 15 to 45 nmol/L measured after 48 hrs by bright field microscopic analysis; type: functional, cell-based; details: dose 15-45 nmol/L
PC-3 = assay: Antiproliferative activity against human PC-3 cells assessed as inhibition of cell growth measured after 48 hrs by MTT assay; type: functional, cell-based; details: PC-3, 48 h
MGC-803 [21] = assay: Induction of apoptosis in human MGC-803 cells assessed as decrease in Bcl-xl protein expression measured after 48 hrs by Western blot analysis; type: functional, cell-based; details: dose 15-45 nmol/L, DDE = dose-dependent effect
MGC-803 [22] = assay: Induction of cell apoptosis in human MGC-803 cells assessed as increase in apoptotic cells measured after 48 hrs by Annexin V/PI staining based flow cytometric analysis; type: functional; details: dose 15-45 nmol/L, DDE = dose-dependent effect
[23] = (§1) Inhibition of porcine brain microtubule polymerization measured after 1 hrs by fluorescence based assay; set-up: species or system Sus scrofa
Sus scrofa = species on record: Sus scrofa; assay: as §1; details: DDE = dose-dependent effect
[24] = molecular target: Tubulin beta (Homo sapiens) (UniProt P68371+Q9H4B7+Q13509+P04350+Q3ZCM7+P07437+Q13885+Q9BVA1+Q9BUF5+A6NNZ2); assay: Binding affinity to beta-tubulin colchicine binding site in human SGC-7901 cells assessed as inhibition of EBI-beta-tubulin adduct band formation preincubated for 2 hrs followed by EBI addition and measured after 2 hrs by EBI competition based Western blotting analysis; type: cell-based; details: dose 1-10 µM, time 4.0 hrs, DDE = dose-dependent effect
SGC-7901 [25] = assay: Induction of apoptosis in human SGC-7901 cells assessed as increase in cleaved PARP expression at 15 to 45 nmol/L measured after 48 hrs by Western blot analysis; type: functional, cell-based; details: dose 15-45 nmol/L
MCF7 = assay: Antiproliferative activity against human MCF7 cells assessed as inhibition of cell growth measured after 48 hrs by MTT assay; type: functional, cell-based; details: MCF7, 48 h
SGC-7901 [26] = assay: Downregulation of Axl protein expression in human SGC-7901 cells at 15 to 45 nmol/L measured after 48 hrs by Western blot analysis; type: functional, cell-based; details: dose 15-45 nmol/L
SGC-7901 [27] = assay: Induction of G2/M phase cell cycle arrest in human SGC-7901 cells assessed as decrease in p-cdc2 (T161) expression at 15 to 45 nmol/L measured after 48 hrs by Western blot analysis; type: functional, cell-based; details: dose 15-45 nmol/L

Question: For `C/C=C/C(=O)N(Cc1ccc(OC)c(O)c1)c1cc(OC)c(OC)c(OC)c1`, which Activity (MGC-803 [1]) is on record?
Answer: Dde

Question: And the Activity (SGC-7901 [2])?
Answer: Active

Question: And the IC50 (SMMC-7721)?
Answer: 43 nM

Question: What about the Activity (SGC-7901 [3]) of the same compound?
Answer: Dde

Question: And the Activity (MGC-803 [4])?
Answer: Active

Question: And the Activity (GES1)?
Answer: Non-Toxic

Question: What about the Activity (MGC-803 [5]) of the same compound?
Answer: Dde

Question: What about the Activity (SGC-7901 [6]) of the same compound?
Answer: Dde

Question: And the Activity (SGC-7901 [7])?
Answer: Active

Question: And the Activity (SGC-7901 [8])?
Answer: Dde

Question: And the IC50 (Huh-7)?
Answer: 60 nM

Question: What about the Activity (SGC-7901 [9]) of the same compound?
Answer: Active

Question: What about the Activity (SGC-7901 [10]) of the same compound?
Answer: Tde

Question: What about the IC50 (MGC-803 [11]) of the same compound?
Answer: 27 nM

Question: And the Activity (SGC-7901 [12])?
Answer: Dde

Question: What about the Activity (SGC-7901 [13]) of the same compound?
Answer: Dde

Question: What about the IC50 (ECa-109 cell line) of the same compound?
Answer: 85 nM

Question: And the Activity (MGC-803 [14])?
Answer: Dde

Question: What about the IC50 (DU-145) of the same compound?
Answer: 81 nM

Question: What about the IC50 at 48 h [15] of the same compound?
Answer: 48500 nM

Question: What about the Activity (SGC-7901 [16]) of the same compound?
Answer: Active

Question: What about the Activity (Tubulin (Homo sapiens)) of the same compound?
Answer: Active

Question: What about the Activity (SGC-7901 [17]) of the same compound?
Answer: Active

Question: And the Activity (SGC-7901 [18])?
Answer: Active

Question: What about the Activity (MGC-803 [19]) of the same compound?
Answer: Active

Question: What about the Activity (MGC-803 [20]) of the same compound?
Answer: Active

Question: What about the IC50 (PC-3) of the same compound?
Answer: 55 nM

Question: What about the Activity (MGC-803 [21]) of the same compound?
Answer: Dde

Question: And the Activity (MGC-803 [22])?
Answer: Dde

Question: What about the IC50 [23] of the same compound?
Answer: 920 nM

Question: And the inhibition (Sus scrofa)?
Answer: Dde

Question: And the Activity [24]?
Answer: Dde

Question: And the Activity (SGC-7901 [25])?
Answer: Active

Question: And the IC50 (MCF7)?
Answer: 67 nM

Question: What about the Activity (SGC-7901 [26]) of the same compound?
Answer: Active

Question: What about the Activity (SGC-7901 [27]) of the same compound?
Answer: Active
